Test results from US12208105B2, “Methods for attenuating graft-versus-host disease and opportunistic infections” (priority 2018, dated 2025).
Where two headings read alike, the source gives them in different places.

Key:
[1] = target: T1, CCR1 (Homo sapiens, UniProt P32246); conditions: cited from earlier work
T1 sequence (P32246 1-355): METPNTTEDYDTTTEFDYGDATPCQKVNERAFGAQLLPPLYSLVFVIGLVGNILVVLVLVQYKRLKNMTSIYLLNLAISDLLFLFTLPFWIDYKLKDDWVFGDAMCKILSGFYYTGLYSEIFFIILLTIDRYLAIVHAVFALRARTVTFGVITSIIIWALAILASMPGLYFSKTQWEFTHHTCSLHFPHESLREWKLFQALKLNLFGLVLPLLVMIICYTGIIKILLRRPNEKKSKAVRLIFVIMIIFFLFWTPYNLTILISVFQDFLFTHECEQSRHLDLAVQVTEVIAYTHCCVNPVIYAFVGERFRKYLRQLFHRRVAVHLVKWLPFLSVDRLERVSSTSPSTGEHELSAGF

[2] = target: T2, CCR7 (Homo sapiens, UniProt P32248); conditions: cited from earlier work
T2 sequence (P32248 25-378): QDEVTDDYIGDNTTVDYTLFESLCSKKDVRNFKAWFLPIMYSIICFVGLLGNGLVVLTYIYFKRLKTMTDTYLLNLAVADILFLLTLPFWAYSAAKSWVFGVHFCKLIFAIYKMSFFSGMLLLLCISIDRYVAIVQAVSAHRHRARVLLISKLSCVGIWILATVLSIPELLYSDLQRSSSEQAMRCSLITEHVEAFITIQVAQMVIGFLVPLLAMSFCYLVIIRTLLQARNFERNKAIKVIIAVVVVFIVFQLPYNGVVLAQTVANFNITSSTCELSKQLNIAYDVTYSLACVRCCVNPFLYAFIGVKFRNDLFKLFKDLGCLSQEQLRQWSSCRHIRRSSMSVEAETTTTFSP

[3] = target: T3, Murine CCR7 (Mus musculus, UniProt P47774); experiment: HTS primary reporter assay, murine CCR7; type: cell-based
T3 sequence (P47774 25-378): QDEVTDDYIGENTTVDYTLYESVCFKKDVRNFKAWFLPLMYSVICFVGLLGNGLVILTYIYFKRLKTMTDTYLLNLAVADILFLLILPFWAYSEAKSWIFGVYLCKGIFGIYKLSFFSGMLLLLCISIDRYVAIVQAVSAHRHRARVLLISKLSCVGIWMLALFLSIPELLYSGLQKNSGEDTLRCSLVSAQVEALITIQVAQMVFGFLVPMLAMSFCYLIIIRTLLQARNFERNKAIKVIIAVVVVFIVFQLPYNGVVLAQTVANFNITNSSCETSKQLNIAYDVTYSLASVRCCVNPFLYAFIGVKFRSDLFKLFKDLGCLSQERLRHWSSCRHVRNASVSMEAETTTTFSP

[4] = tested on: human PBMC into NSG xenogeneic aGVHD system; experiment: Xenogeneic aGVHD, human PBMC into NSG mice, cells incubated ex vivo; type: in vivo, mouse; parameters: survival times: dose or concentration left out as unconfirmed
[5] = target: T4, CCR7 (Mus musculus, UniProt P47774); experiment: Trans-well chemotaxis assay, primary murine T cells; type: cell-based
T4 construct: confirm that hits identified in the HTS were active against native CCR7; endogenous in cells; host or cells: primary naive (CD25neg) T cells from C57BL/6 mice
T4 sequence (P47774 25-378): T3 sequence (P47774 25-378)
Experimental: FIGS. 1A-1D show cosalane impairs CCR7 driven human and murine chemotaxis. (A, B) Chemotaxis media with or without CCL19 (A) or CCL21 (B) was added to the lower chambers of the chemotaxis device. Previously untreated H9 cells were then placed in the upper chambers of the device with or without cosalane at a concentration of 2 μM. The chamber was then placed at 37° C. for 3.5 hours and total H9 migration from each upper to lower chamber determined. (A) *P=0.048 for comparison between H9 cells/30 nM CCL19 and H9 cells/30 nM CCL19/2 μM cosalane by Student's t test. (B) P>0.05 for comparison between H9 cells/200 nM CCL21 and H9 cells/200 nM CCL21/2 μM cosalane. (C, D) Chemotaxis media with or without CCL19 (C) or CCL21 (D) was added to the lower chambers of the chemotaxis device. Previously untreated primary murine T cells were then placed in the upper chambers of the device with or without cosalane at a concentration of 2 μM. Total T cell migration from each upper to lower chamber was then determined. (C) *P=0.029. (D) *P<0.001.
While useful from a screening perspective, our primary reporter assays for the HTS were not physiologic. As a result, it was important to confirm that hits identified in the HTS were active against native CCR7 and could block an actual function mediated by the receptor. For this, we used a well-described trans-well chemotaxis assay system using human H9 cells, a cutaneous T cell lymphoma line known to express high levels of CCR7 and to migrate in response to its ligands (Ott et al., J. Pharmacol. Toxicol. Meth. 51:105 (2005)). In addition, we utilized primary mouse, naïve (CD25^neg) T cells obtained from C57BL/6 mice. As depicted in FIG. 1A, human H9 cells placed in the upper chambers of the chemotaxis device readily migrated through the separating membrane when CCL19 was present in the lower chamber. […] Similarly, murine T cell chemotaxis was also impaired by cosalane in response to both CCL19 and CCL21 (FIGS. 1C-1D).
To evaluate this possibility, human H9 cells were incubated with 10 mcg/ml (13 μM) of cosalane versus DMSO vehicle for one hour and then washed free of the compound. The cells were then placed into the chemotaxis chamber as was done in FIGS. 1A-1D. […] Similar experiments were performed with naïve primary mouse T cells.

[6] = tested on: B6 Tcons; experiment: Tcon proliferation assay
Experimental: (A) B6 Tcons were purified and incubated with increasing concentrations of cosalane or equal volumes of DMSO vehicle in normal saline for one hour at 37° C. The cells were then washed and cultured on 24 well plates pre-coated with anti-CD3 and anti-CD28 antibody in the presence of supplemental IL-2 for 72 hours. The number of cells per well were then quantified.
Tcon proliferation assay: Purified CD25^− B6 Tcons were incubated with cosalane at the indicated concentrations or an equal volume of DMSO vehicle for one hour at 37° C. The cells were then washed and cultured on 24-well plates previously incubated overnight with anti-CD3 and anti-CD28 antibody at 10 μg/ml. The cells were cultured for 72 hours in complete media supplemented with murine interleukin-2 at 100 IUs/ml and then counted using a hemacytometer.
Purified B6 Tcons were isolated as before and incubated with cosalane at increasing concentrations ranging from 10 μg/ml (13 μM—the concentration used for the B6 into B6D2 survival experiment described in FIGS. 3D and 3E) to 30 μg/ml (39 μM) or an equal volume of DMSO diluted in normal saline. The cells were then washed, placed on 24 well plates pre-coated with anti-CD3 and anti-CD28 immunoglobulin, and cultured for 72 hours in media containing supplemental IL-2.

[7] = tested on: B6 into B6D2 aGVHD model
[8] = tested on: B6 into BALB/c aGVHD model; experiment: aGVHD, B6 into BALB/c MHC mismatched allograft, Tcons incubated ex vivo; type: in vivo, mouse
[9] = tested on: murine cytomegalovirus (mCMV); experiment: Murine cytomegalovirus plaque assay on 3T3 fibroblasts; type: cell-based
[10] = 10 mcg/ml (13 μM), then washed, vs DMSO
[11] = BM plus Tcons incubated 15 μg/ml
[12] = Tcons incubated 10 μg/ml (13 μM) in saline alone, one hour

## CC(C)CCC[C@@H](C)[C@H]1CC[C@H]2[C@@H]3CC[C@H]4C[C@@H](CCC=C(c5cc(Cl)c(O)c(C(=O)O)c5)c5cc(Cl)c(O)c(C(=O)O)c5)CC[C@]4(C)[C@H]3CC[C@]12C [Cosalane, cosalane]
[1]
  CCR1 dependent chemotaxis in response to CCL3 and CCL4: inactive
  CCR1 dependent chemotaxis in response to CCL5: blocked
[2]
  activity against CCL19 versus CCL21: approximately 10 fold
[3]; ligand CCL19, read-out: Murine CCR7 IC50 To CCL19
  IC50: 0.193 µM
[3]; ligand CCL21, read-out: Murine CCR7 IC50 To CCL21
  IC50: 1.98 µM
[4]; human PBMCs incubated 35 μg/ml
  survival: most recipients surviving to the end of the study period
[4]; human PBMCs incubated with cosalane
  survival times: prolonged survival times
[5]; 2 μM cosalane in upper chamber
  murine T cell chemotaxis in response to CCL19: impaired
  murine T cell chemotaxis in response to CCL21: impaired
[5]; [10]
  primary murine T cell chemotaxis in response to CCL19 after pretreatment: significantly reduced
  primary murine T cell chemotaxis in response to CCL21 after pretreatment: significantly reduced
[6]; 10 μg/ml (13 μM) to 30 μg/ml (39 μM), one hour, washed, 72 hours anti-CD3/anti-CD28/IL-2
  Tcon cell numbers after culture: no differences in cell numbers
[6]; doses up to 39 μM
  cytotoxicity in vitro: did not induce any apparent cytotoxicity
[7]; BM cells and Tcons incubated 15 μg/ml
  recipients surviving to the end of the study period, combined treatment: 100%
[7]; [11]
  delayed bone marrow failure: no clinical signs of delayed bone marrow failure
  group surviving to the end of the study observation period: 90%
[7]; [12]
  aGVHD scores: reduced aGVHD scores
  median survival times: improved median survival times
[7]; Tcons incubated 10 μg/ml in saline plus 1% albumin
  aGVHD: developed severe aGVHD similar to DMSO controls
[7]; Tcons incubated 15 μg/ml, BM DMSO
  survival, isolated treatment of donor Tcons: 100%
[7]; Tcons incubated 10, 20 or 30 μg/ml
  transplant outcomes, dose dependence: improved transplant outcomes with increasing dosages
[7]; mouse, in vivo
  aGVHD attenuation, whole stem product treated: attenuate aGVHD at least as well as what was observed previously with the isolated treatment of Tcons alone
  outcomes, isolated treatment of donor BM cells alone: did not significantly improve outcomes
[8]; Tcons incubated 15 μg/ml in saline
  survival times: prolonged survival times
[8]; Tcons incubated 30 μg/ml
  survival: most recipients surviving to the end of the study period
[9]; 15 μg/ml throughout infection, MOI 0.05 and 0.005, vs DMSO
  mCMV plaque number / activity, compound in infectivity media: significantly reduced plaque number
[9]; pretreatment only
  mCMV visible cytopathic effect, isolated pretreatment of 3T3 cells: virtually no effect
